This note sets out measurements from ChEMBL document CHEMBL4630904, “Data for DCP probe BI 207127” (2021).

The source made the active and inactive calls. The calls are words filed in the database; no cut-off is given here.

Series [1] has as its target RNA-directed RNA polymerase (Hepacivirus hominis, UniProt O39930). The series is described as follows: Enzymatic assay with HCV NS5B polymerase D21.
Series [2] addresses Mu-type opioid receptor (Homo sapiens) (UniProt P35372). Kind of series: MU/H Eurofins SafetyScreen44 (BI). Conditions: Compound concentration 10.0 uM.
Series [3] has as its target Voltage-dependent L-type calcium channel subunit alpha-1C (dihydropyridine site) (Rattus norvegicus, UniProt P22002). Kind of series: CA+/DHPSI/R Eurofins SafetyScreen44 (BI). Details: mode of action inhibitor. Conditions: rat brain, probe [3H](+)PN200-110, compound concentration 10 uM, read-out: % Ctrl.
In series [4] the target is Tyrosine-protein kinase Lck (Homo sapiens) (UniProt P06239). Kind of series: LCK_CE Eurofins SafetyScreen44 (BI). Conditions: Compound concentration 10.0 uM.
For another series, the target named is hERG (KCNH2) (Homo sapiens, UniProt Q12809). The series is described as follows: HERG_DOFETILIDE Eurofins SafetyScreen44 (BI). Also noted: mode of action inhibitor. Conditions: probe [3H] Dofetilide, compound concentration 10 uM, read-out: % Ctrl.
Series [5] has as its target Cannabinoid receptor 2 (Homo sapiens) (UniProt P34972). Kind of series: CB2/PERIPH/H Eurofins SafetyScreen44 (BI). Conditions: Compound concentration 10.0 uM.
The target in series [6] is Prostaglandin G/H synthase 1 (Homo sapiens) (UniProt P23219). The series is described as follows: COX-1 Eurofins SafetyScreen44 (BI). Conditions: Compound concentration 10.0 uM.
Prostaglandin G/H synthase 1 (Homo sapiens), sequence (P23219 whole entry): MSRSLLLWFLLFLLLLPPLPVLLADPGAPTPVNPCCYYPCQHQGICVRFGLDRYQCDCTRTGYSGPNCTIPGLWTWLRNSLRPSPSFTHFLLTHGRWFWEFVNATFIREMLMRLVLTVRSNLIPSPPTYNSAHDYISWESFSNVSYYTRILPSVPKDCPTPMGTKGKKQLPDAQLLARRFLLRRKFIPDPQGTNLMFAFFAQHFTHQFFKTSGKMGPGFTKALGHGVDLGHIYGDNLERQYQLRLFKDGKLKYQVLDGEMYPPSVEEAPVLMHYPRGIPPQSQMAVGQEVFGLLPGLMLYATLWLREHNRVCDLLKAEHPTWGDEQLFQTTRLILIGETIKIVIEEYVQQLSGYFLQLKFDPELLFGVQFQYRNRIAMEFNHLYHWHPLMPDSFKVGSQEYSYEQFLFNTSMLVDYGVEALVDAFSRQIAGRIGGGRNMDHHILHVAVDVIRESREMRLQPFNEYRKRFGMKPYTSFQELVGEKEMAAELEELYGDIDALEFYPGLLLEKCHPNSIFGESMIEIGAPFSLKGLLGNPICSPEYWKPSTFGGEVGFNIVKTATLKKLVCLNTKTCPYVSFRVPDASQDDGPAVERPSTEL
Series [7] addresses Delta-type opioid receptor (Homo sapiens) (UniProt P41143). Kind of series: DELTA2/H Eurofins SafetyScreen44 (BI). Particulars: Compound concentration 10.0 uM.
In series [8] the target is MAO-A (amine oxidase [flavin-containing] A) (Rattus norvegicus, UniProt P21396). The series is described as follows: MAO-A_ANTAG Eurofins SafetyScreen44 (BI). Details: mode of action antagonist; scale not given: the % may be the effect or the level left. Particulars: compound concentration 10 uM, read-out: % Ctrl.
Series [9] concerns the target cGMP-inhibited 3',5'-cyclic phosphodiesterase 3A (Homo sapiens) (UniProt Q14432). The series is described as follows: PDE3A Eurofins SafetyScreen44 (BI). Conditions: Compound concentration 10.0 uM.
Series [10] deals with Muscarinic acetylcholine receptor M2 (Homo sapiens) (UniProt P08172). Kind of series: M2/H Eurofins SafetyScreen44 (BI). Conditions: filed as antagonist, Compound concentration 10.0 uM.
Muscarinic acetylcholine receptor M2 (Homo sapiens), sequence (P08172 whole entry): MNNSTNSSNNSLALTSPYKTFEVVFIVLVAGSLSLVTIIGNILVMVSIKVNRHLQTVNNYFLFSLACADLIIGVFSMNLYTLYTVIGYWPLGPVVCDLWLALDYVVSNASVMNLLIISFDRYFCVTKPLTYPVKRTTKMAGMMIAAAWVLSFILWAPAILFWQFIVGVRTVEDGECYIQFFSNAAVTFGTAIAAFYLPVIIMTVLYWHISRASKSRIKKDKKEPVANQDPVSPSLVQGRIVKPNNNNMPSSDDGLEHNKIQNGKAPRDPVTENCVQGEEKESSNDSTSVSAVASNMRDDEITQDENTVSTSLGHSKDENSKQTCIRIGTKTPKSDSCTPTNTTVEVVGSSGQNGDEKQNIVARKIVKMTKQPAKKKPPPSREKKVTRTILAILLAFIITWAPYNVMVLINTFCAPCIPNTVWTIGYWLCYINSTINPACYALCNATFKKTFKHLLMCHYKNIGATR
The target of series [11] is Adenosine receptor A2a (Homo sapiens) (UniProt P29274). Kind of series: A2A/H Eurofins SafetyScreen44 (BI). Conditions: filed as antagonist, Compound concentration 10.0 uM.
The target of series [12] is Cannabinoid receptor 1 (Homo sapiens) (UniProt P21554). The series is described as follows: CB1(HU)_AGON Eurofins SafetyScreen44 (BI). Particulars: filed as agonist; Compound concentration 10.0 uM.
Cannabinoid receptor 1 (Homo sapiens), sequence (P21554 whole entry): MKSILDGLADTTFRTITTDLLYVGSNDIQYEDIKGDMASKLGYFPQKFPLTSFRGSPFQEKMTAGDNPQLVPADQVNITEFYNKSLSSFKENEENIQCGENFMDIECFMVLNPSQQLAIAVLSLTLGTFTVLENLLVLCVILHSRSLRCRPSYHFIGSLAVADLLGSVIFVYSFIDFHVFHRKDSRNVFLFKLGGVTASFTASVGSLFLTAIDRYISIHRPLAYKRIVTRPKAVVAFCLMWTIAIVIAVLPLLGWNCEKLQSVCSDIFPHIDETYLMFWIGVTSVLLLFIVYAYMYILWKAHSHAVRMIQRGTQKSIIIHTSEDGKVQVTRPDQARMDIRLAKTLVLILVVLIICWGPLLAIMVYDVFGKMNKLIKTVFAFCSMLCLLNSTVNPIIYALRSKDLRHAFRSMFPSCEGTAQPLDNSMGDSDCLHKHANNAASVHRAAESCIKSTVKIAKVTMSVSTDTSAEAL
Series [13] concerns the target Sodium channel regulatory subunit beta-1 (Rattus norvegicus) (UniProt Q00954). The series is described as follows: NA+/SITE2/R Eurofins SafetyScreen44 (BI). Particulars: Compound concentration 10.0 uM.
In series [14] the target is Beta-1 adrenergic receptor (Homo sapiens) (UniProt P08588). The series is described as follows: BETA1/HUM Eurofins SafetyScreen44 (BI). Conditions: Compound concentration 10.0 uM.
The target of series [15] is Glutamate receptor ionotropic, NMDA 2A (Rattus norvegicus) (UniProt Q00959). The series is described as follows: NMDA/R Eurofins SafetyScreen44 (BI). Conditions: Compound concentration 10.0 uM.
The target of series [16] is Histamine H1 receptor (Homo sapiens) (UniProt P35367). Kind of series: H1/PYRIL/HS Eurofins SafetyScreen44 (BI). Conditions: Compound concentration 10.0 uM.
Series [17] deals with Androgen receptor (Homo sapiens) (UniProt P10275). The series is described as follows: ANDROGEN/H Eurofins SafetyScreen44 (BI). Particulars: Compound concentration 10.0 uM.
Series [18] concerns the target Alpha-2A adrenergic receptor (Homo sapiens) (UniProt P08913). Kind of series: ALPHA2A/HU Eurofins SafetyScreen44 (BI). Particulars: Compound concentration 10.0 uM.
The target of series [19] is D(1A) dopamine receptor (Homo sapiens) (UniProt P21728). The series is described as follows: D1/H Eurofins SafetyScreen44 (BI). Conditions: filed as antagonist, Compound concentration 10.0 uM.
The target of series [20] is 3',5'-cyclic-AMP phosphodiesterase 4D (Homo sapiens) (UniProt Q08499). The series is described as follows: PDE4D2 Eurofins SafetyScreen44 (BI). Particulars: Compound concentration 10.0 uM.
Series [21] concerns the target Kappa-type opioid receptor (Homo sapiens) (UniProt P41145). Kind of series: KAPPA(KOP)_HU Eurofins SafetyScreen44 (BI). Conditions: Compound concentration 10.0 uM.
In series [22] the target is 5-hydroxytryptamine receptor 2B (Homo sapiens) (UniProt P41595). The series is described as follows: 5HT2B/H AG Eurofins SafetyScreen44 (BI). Particulars: filed as agonist, Compound concentration 10.0 uM.
For series [23], the target named is Neuronal acetylcholine receptor; alpha4/beta2 (Homo sapiens) (UniProt P17787+P43681). Kind of series: N_NEURO_A4B2 Eurofins SafetyScreen44 (BI). It counts as protein-complex assay. Conditions: filed as agonist, Compound concentration 10.0 uM.
In series [24] the target is Muscarinic acetylcholine receptor M3 (Homo sapiens) (UniProt P20309). Kind of series: M3/H Eurofins SafetyScreen44 (BI). Particulars: Compound concentration 10.0 uM.
In series [25] the target is Muscarinic acetylcholine receptor M1 (Homo sapiens) (UniProt P11229). Kind of series: M1/H Eurofins SafetyScreen44 (BI). Particulars: Compound concentration 10.0 uM.
Series [26] addresses Endothelin-1 receptor (Homo sapiens) (UniProt P25101). Kind of series: ETA/H Eurofins SafetyScreen44 (BI). Particulars: Compound concentration 10.0 uM.
The target of series [27] is Cholecystokinin receptor type A (Homo sapiens) (UniProt P32238). The series is described as follows: CCKA/H Eurofins SafetyScreen44 (BI). Particulars: Compound concentration 10.0 uM.
The target in series [28] is Sodium-dependent noradrenaline transporter (Homo sapiens) (UniProt P23975). Kind of series: NEUP/H Eurofins SafetyScreen44 (BI). Particulars: Compound concentration 10.0 uM.
The target in series [29] is D(2) dopamine receptor (Homo sapiens) (UniProt P14416). The series is described as follows: D2SH_AGON Eurofins SafetyScreen44 (BI). Conditions: filed as agonist, Compound concentration 10.0 uM.
Series [30] has as its target Glucocorticoid receptor (Homo sapiens) (UniProt P04150). Kind of series: GCORTICOID/H Eurofins SafetyScreen44 (BI). Particulars: Compound concentration 10.0 uM.
The target in series [31] is 5-hydroxytryptamine receptor 1B (Homo sapiens) (UniProt P28222). Kind of series: 5HT1B(H) Eurofins SafetyScreen44 (BI). Particulars: filed as antagonist, Compound concentration 10.0 uM.
Series [32] deals with Sodium-dependent serotonin transporter (Homo sapiens) (UniProt P31645). The series is described as follows: SLC6A4/H Eurofins SafetyScreen44 (BI). Particulars: filed as antagonist, Compound concentration 10.0 uM.
In series [33] the target is Sodium-dependent dopamine transporter (Homo sapiens) (UniProt Q01959). The series is described as follows: DATRANS/HUM Eurofins SafetyScreen44 (BI). Particulars: Compound concentration 10.0 uM.
The target of series [34] is 5-hydroxytryptamine receptor 2A (Homo sapiens) (UniProt P28223). The series is described as follows: 5HT2AH_AGON Eurofins SafetyScreen44 (BI). Particulars: filed as agonist, Compound concentration 10.0 uM.
Series [35] addresses Beta-2 adrenergic receptor (Homo sapiens) (UniProt P07550). The series is described as follows: BETA2/HUM Eurofins SafetyScreen44 (BI). Particulars: filed as antagonist, Compound concentration 10.0 uM.
Series [36] deals with Angiotensin-converting enzyme (Homo sapiens) (UniProt P12821). The series is described as follows: ACE(HU_AMTCH400) Eurofins SafetyScreen44 (BI). Conditions: Compound concentration 10.0 uM.
In series [37] the target is Potassium voltage-gated channel subfamily V member 1 (Rattus norvegicus) (UniProt P97557). Kind of series: K+/VOLT/RA Eurofins SafetyScreen44 (BI). Conditions: Compound concentration 10.0 uM.
The target in series [38] is Gamma-aminobutyric acid receptor subunit alpha-1 (Rattus norvegicus) (UniProt P62813). Kind of series: BZD/CENTR/R Eurofins SafetyScreen44 (BI). Conditions: Compound concentration 10.0 uM.
Gamma-aminobutyric acid receptor subunit alpha-1 (Rattus norvegicus), sequence (P62813 whole entry): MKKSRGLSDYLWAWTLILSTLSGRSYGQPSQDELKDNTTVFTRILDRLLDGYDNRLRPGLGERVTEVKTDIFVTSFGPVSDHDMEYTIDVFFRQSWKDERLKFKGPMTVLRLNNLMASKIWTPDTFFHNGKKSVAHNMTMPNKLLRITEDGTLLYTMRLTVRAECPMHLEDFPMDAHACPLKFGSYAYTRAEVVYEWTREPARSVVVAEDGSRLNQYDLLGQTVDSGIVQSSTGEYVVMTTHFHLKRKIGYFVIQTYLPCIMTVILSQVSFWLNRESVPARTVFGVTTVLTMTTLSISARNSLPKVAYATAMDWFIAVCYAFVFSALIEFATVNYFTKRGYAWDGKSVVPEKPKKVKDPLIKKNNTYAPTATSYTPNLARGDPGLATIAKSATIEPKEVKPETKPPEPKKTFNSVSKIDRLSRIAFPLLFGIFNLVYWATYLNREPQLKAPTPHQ
The target of series [39] is Vasopressin V1a receptor (Homo sapiens) (UniProt P37288). Kind of series: V1A/HUM Eurofins SafetyScreen44 (BI). Conditions: Compound concentration 10.0 uM.
Vasopressin V1a receptor (Homo sapiens), sequence (P37288 whole entry, looked up): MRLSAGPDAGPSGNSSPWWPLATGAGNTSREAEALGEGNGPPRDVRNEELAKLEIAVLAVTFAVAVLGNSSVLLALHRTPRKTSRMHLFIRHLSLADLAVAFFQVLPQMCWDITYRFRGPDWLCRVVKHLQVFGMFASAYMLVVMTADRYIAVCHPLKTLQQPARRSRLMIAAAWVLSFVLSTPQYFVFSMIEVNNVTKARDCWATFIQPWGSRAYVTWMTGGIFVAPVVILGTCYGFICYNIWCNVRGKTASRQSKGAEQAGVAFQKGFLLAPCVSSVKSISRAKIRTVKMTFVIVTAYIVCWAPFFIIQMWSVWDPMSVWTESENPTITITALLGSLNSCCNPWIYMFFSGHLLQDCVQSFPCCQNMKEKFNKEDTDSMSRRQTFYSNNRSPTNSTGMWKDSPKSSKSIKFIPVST
Series [40] addresses Prostaglandin G/H synthase 2 (Homo sapiens) (UniProt P35354). The series is described as follows: COX-2 Eurofins SafetyScreen44 (BI). Conditions: Compound concentration 10.0 uM.
Series [41] deals with 5-hydroxytryptamine receptor 1A (Homo sapiens) (UniProt P08908). Kind of series: 5HT1A/H Eurofins SafetyScreen44 (BI). Particulars: Compound concentration 10.0 uM.
Series [42] has as its target Histamine H2 receptor (Homo sapiens) (UniProt P25021). Kind of series: H2/APT/HS Eurofins SafetyScreen44 (BI). Conditions: filed as antagonist, Compound concentration 10.0 uM.
Series [43] deals with 5-hydroxytryptamine receptor 3A (Homo sapiens) (UniProt P46098). Kind of series: 5HT3/H Eurofins SafetyScreen44 (BI). Particulars: Compound concentration 10.0 uM.
Series [44] addresses Alpha-1A adrenergic receptor (Homo sapiens) (UniProt P35348). The series is described as follows: ALPHA1AH_ANTAG Eurofins SafetyScreen44 (BI). Particulars: filed as antagonist, Compound concentration 10.0 uM.

RNA-directed RNA polymerase, sequence (O39930 whole entry): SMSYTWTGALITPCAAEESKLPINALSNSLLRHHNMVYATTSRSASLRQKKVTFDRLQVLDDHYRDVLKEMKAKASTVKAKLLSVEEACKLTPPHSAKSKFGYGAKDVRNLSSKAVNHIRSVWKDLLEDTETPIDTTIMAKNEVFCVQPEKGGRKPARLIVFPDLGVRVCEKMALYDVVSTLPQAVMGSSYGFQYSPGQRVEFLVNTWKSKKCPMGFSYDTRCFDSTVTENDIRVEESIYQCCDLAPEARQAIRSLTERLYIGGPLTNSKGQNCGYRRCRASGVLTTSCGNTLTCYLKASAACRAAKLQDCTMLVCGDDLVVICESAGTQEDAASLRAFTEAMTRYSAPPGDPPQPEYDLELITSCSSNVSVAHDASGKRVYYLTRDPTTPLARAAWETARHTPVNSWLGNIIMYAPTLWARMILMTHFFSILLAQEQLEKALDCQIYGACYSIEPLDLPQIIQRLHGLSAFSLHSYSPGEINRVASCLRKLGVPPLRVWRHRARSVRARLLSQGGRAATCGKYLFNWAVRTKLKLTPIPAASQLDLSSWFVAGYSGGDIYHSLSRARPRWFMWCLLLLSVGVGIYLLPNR
cGMP-inhibited 3',5'-cyclic phosphodiesterase 3A (Homo sapiens), sequence (Q14432 whole entry): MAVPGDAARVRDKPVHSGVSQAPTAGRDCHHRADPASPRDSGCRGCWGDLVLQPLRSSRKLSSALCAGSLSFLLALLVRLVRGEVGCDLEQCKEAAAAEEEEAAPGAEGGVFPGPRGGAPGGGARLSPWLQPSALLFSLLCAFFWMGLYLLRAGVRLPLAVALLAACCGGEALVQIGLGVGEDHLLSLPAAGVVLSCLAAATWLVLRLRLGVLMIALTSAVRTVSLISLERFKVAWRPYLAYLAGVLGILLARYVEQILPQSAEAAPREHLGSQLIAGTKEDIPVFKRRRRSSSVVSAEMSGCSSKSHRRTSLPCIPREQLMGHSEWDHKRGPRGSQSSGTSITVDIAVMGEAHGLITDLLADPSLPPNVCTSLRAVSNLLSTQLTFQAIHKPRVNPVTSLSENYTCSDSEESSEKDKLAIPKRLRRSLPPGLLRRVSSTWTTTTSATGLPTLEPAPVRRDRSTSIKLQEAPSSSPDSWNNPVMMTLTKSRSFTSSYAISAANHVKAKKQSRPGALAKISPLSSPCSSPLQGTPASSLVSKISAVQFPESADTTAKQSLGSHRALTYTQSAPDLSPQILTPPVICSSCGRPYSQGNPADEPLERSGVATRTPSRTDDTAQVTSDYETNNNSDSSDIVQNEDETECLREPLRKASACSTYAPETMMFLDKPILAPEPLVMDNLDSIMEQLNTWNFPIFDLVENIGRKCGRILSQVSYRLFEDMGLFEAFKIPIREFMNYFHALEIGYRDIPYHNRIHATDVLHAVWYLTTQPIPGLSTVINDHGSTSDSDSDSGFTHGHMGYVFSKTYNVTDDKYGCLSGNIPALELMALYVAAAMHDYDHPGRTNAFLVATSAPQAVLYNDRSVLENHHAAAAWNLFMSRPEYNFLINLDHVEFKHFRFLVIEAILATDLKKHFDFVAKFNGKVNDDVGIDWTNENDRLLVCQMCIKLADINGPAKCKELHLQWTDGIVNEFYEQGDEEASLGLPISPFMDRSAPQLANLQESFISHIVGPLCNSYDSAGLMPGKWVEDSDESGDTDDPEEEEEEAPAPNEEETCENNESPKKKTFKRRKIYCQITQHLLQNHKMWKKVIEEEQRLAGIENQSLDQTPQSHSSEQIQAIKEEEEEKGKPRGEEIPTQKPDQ
Endothelin-1 receptor (Homo sapiens), sequence (P25101 whole entry): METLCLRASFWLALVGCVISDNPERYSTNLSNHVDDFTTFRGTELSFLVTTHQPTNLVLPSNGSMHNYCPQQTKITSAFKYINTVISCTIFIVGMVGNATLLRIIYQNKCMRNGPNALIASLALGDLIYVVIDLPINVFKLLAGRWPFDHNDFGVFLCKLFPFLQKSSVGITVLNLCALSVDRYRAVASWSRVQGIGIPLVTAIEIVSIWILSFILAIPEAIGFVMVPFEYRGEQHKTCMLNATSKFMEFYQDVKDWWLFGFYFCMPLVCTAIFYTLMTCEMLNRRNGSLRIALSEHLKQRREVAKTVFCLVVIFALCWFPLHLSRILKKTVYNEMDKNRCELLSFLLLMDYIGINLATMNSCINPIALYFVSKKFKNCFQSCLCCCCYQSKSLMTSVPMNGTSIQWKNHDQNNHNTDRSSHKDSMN
Histamine H2 receptor (Homo sapiens), sequence (P25021 whole entry): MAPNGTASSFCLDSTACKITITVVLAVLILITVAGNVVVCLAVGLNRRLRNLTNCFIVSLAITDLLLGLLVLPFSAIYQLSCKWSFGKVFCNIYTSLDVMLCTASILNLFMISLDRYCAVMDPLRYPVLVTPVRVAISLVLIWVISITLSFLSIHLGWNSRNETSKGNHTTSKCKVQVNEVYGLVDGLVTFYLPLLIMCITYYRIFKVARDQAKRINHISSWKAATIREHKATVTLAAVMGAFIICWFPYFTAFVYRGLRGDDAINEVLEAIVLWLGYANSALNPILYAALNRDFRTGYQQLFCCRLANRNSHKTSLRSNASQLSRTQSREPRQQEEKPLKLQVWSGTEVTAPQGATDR

The IC50 is the concentration needed to halve the response being measured. As for `Cn1c(C2(NC(=O)c3ccc(NCC4CCCCC4)nc3)CCC2)nc2ccc(/C=C/C(=O)O)cc21` [BI 7656], in [1], the IC50 was > 5000 nM (not active).

As to `Cn1c(C2(NC(=O)c3ccc4c(C5CCCC5)c(-c5ncc(Br)cn5)n(C)c4c3)CCC2)nc2ccc(/C=C/C(=O)O)cc21` [DELEOBUVIR], the residual activity in series [2] is 83%; in [4], 117%; in series [5] it was 67%; in series [6], 73%; in series [7], 47%; in [9] it was 140%. Further, the residual activity is 104% in series [10]; 133% in [11]; 72% in [12]; 79% in series [13]; 96% in series [14]; 83% in series [15]. For the same compound, the residual activity in [16] is 81%; in series [17], 107%; in [18], 93%; in series [19], 67%; in [20], 130%; in series [21], 59%. The residual activity in series [22] is 140%; in series [23] it was 111%; in series [24] it was 101%; in series [25] it was 107%; in series [26] it was 107%; in series [27], 12%. In addition, the residual activity in series [28] is 76%; in series [29] it was 86%; in series [30] it was 81%; in series [31], 97%; in series [32], 117%; in [33], 66%. Further, the residual activity in [34] was 67%; in series [35] it was 100%; in [36], 109%; in [37], 107%; in [38], 148%; in series [39], 97%. Moreover, the residual activity in [40] is 85%; in series [41], 116%; in [42], 108%; in series [43], 105%; in series [44] it was 100%. Also, the activity at 10 µM in series [3] is listed as 105% (not active); at hERG (KCNH2) it was 68% (not active); in series [8], 92% (not active). In addition, the IC50 in [1] is 19 nM (active).
